From publication PMC6804253, “Predicting and Experimentally Validating Hot-Spot Residues at Protein–Protein Interfaces” (ACS Chemical Biology, 2019)
Where two headings read alike, the source gives them in different places.

B1: 2PCC VA197A (protein, UniProt P00431 68-361, looked up, variant V197A)
Cytochrome c peroxidase, …: TTPLVHVASVEKGRSYEDFQKVYNAIALKLREDDEYDNYIGYGPVLVRLAWHTSGTWDKHDNTGGSYGGTYRFKKEFNDPSNAGLQNGFKFLEPIHKEFPWISSGDLFSLGGVTAVQEMQGPKIPWRCGRVDTPEDTTPDNGRLPDADKDADYVRTFFQRLNMNDREVVALMGAHALGKTHLKNSGYEGPWGAANNAFTNEFYLNLLNEDWKLEKNDANNEQWDSKSGYMMLPTDYSLIQDPKYLSIVKEYANDQDKFFKDFSKAFEKLLENGITFPKDAPSPFIFKTLEEQGL
B2: 1JRH NI48A (protein, UniProt P15260 18-245, looked up, variant N48A)
extracellular domain: EMGTADLGPSSVPTPTNVTIESYNMNPIVYWEYQIMPQVPVFTVEVKAYGVKNSEWIDACINISHHYCNISDHVGDPSNSLWVRVKARVGQKESAYAKSEEFAVCRDGKIGPPKLDIRKEEKQIMIDIFHPSVFVNGDEQEVDYDPETTCYIRVYNVYVRMNGSEIQYKILTQKEDDCDEIQCQLAIPVSSLNSQYCVSAEGVLHVWGVTTEKSKEVCITIFNSSIKG
modifications: extracellular domain
B3: 1JRH NI53A (protein, UniProt P15260 18-245, looked up, variant N53A)
extracellular domain: EMGTADLGPSSVPTPTNVTIESYNMNPIVYWEYQIMPQVPVFTVEVKNYGVKASEWIDACINISHHYCNISDHVGDPSNSLWVRVKARVGQKESAYAKSEEFAVCRDGKIGPPKLDIRKEEKQIMIDIFHPSVFVNGDEQEVDYDPETTCYIRVYNVYVRMNGSEIQYKILTQKEDDCDEIQCQLAIPVSSLNSQYCVSAEGVLHVWGVTTEKSKEVCITIFNSSIKG
modifications: extracellular domain
B4: 1JRH SI54A (protein, UniProt P15260 18-245, looked up, variant S54A)
extracellular domain: EMGTADLGPSSVPTPTNVTIESYNMNPIVYWEYQIMPQVPVFTVEVKNYGVKNAEWIDACINISHHYCNISDHVGDPSNSLWVRVKARVGQKESAYAKSEEFAVCRDGKIGPPKLDIRKEEKQIMIDIFHPSVFVNGDEQEVDYDPETTCYIRVYNVYVRMNGSEIQYKILTQKEDDCDEIQCQLAIPVSSLNSQYCVSAEGVLHVWGVTTEKSKEVCITIFNSSIKG
modifications: extracellular domain
B5: 1KTZ IB125A (protein, UniProt P37173 23-166, looked up, variant I125A)
extracellular domain: TIPPHVQKSVNNDMIVTDNNGAVKFPQLCKFCDVRFSTCDNQKSCMSNCSITSICEKPQEVCVAVWRKNDENITLETVCHDPKLPYHDFILEDAASPKCIMKEKKKPGETFFMCSCSSDECNDNAIFSEEYNTSNPDLLLVIFQ
modifications: extracellular domain
B6: 1IAR TA6A (protein, UniProt P05112 25-153, looked up, variant T6A)
Interleukin-4: HKCDIALQEIIKTLNSLTEQKTLCTELTVTDIFAASKNTTEKETFCRAATVLRQFYSHHEKDTRCLGATAQQFHRHKQLIRFLKRLDRNLWGLAGLNSCPVKEANQSTLENFLERLKTIMREKYSKCSS
B7: 1IAR NA15A (protein, UniProt P05112 25-153, looked up, variant N15A)
Interleukin-4: HKCDITLQEIIKTLASLTEQKTLCTELTVTDIFAASKNTTEKETFCRAATVLRQFYSHHEKDTRCLGATAQQFHRHKQLIRFLKRLDRNLWGLAGLNSCPVKEANQSTLENFLERLKTIMREKYSKCSS
B8: 1IAR SA16A (protein, UniProt P05112 25-153, looked up, variant S16A)
Interleukin-4: HKCDITLQEIIKTLNALTEQKTLCTELTVTDIFAASKNTTEKETFCRAATVLRQFYSHHEKDTRCLGATAQQFHRHKQLIRFLKRLDRNLWGLAGLNSCPVKEANQSTLENFLERLKTIMREKYSKCSS
B9: 1IAR QA8A (protein, UniProt P05112 25-153, looked up, variant Q8A)
Interleukin-4: HKCDITLAEIIKTLNSLTEQKTLCTELTVTDIFAASKNTTEKETFCRAATVLRQFYSHHEKDTRCLGATAQQFHRHKQLIRFLKRLDRNLWGLAGLNSCPVKEANQSTLENFLERLKTIMREKYSKCSS
B10: 1IAR NA89A (protein, UniProt P05112 25-153, looked up, variant N89A)
Interleukin-4: HKCDITLQEIIKTLNSLTEQKTLCTELTVTDIFAASKNTTEKETFCRAATVLRQFYSHHEKDTRCLGATAQQFHRHKQLIRFLKRLDRALWGLAGLNSCPVKEANQSTLENFLERLKTIMREKYSKCSS
B11: 1IAR TA13A (protein, UniProt P05112 25-153, looked up, variant T13A)
Interleukin-4: HKCDITLQEIIKALNSLTEQKTLCTELTVTDIFAASKNTTEKETFCRAATVLRQFYSHHEKDTRCLGATAQQFHRHKQLIRFLKRLDRNLWGLAGLNSCPVKEANQSTLENFLERLKTIMREKYSKCSS
B12: 1REW QC86A (protein, UniProt P36894 24-152, looked up, variant Q86A)
extracellular domain: QNLDSMLHGTGMKSDSDQKKSENGVTLAPEDTLPFLKCYCSGHCPDDAINNTCITNGHCFAIIEEDDQGETTLASGCMKYEGSDFACKDSPKAQLRRTIECCRTNLCNQYLQPTLPPVVIGPFFDGSIR
modifications: extracellular domain

Assays:
[1] = test system: PPIs of the SKEMPI data set (by PDBID); conditions: ref SKEMPI, cited from earlier work; for sk_ddG_kJ (SKEMPI experimental ΔΔG) / sk_ddG_kJ / sk_ddG_kJ (SKEMPI experimental ΔΔG, mutation to alanine): single mutation to alanine; for sk_ddG_kJ: SKEMPI experimental ΔΔG of binding; for sk_class: class of the SKEMPI experimental ΔΔG; for sk_class (class of SKEMPI experimental ΔΔG): class by ΔΔG threshold 4.184 kJ/mol; for sk_ddG_kJ (SKEMPI experimental ΔΔG, mutation to alanine): residue group in r_group
[2] = test system: PPIs of the SKEMPI data set (by PDBID); assay: SKEMPI experimental ΔΔG, single mutations to alanine; format: binding; conditions: class of the SKEMPI experimental ΔΔG
[3] = complex given by PDBID, residue group SQNT
[4] = sheet sortedByGroup, r_group FAMILYVW

Row | Molecule | sk_ddG_kJ ([1]; PPI given by PDBID) [kJ] | sk_class [1] | other results
1 | 1A4Y QB12A |  |  | sk_ddG_kJ (SKEMPI experimental ΔΔG) ([1]; complex given by PDBID, mutation by mut_pdb): 1.26 kJ; sk_class [2]: Neutral (neutral (little effect) 4.184 kJ/mol < ΔΔG > −4.184 kJ/mol)
2 | 1GC1 TC15A | 1.34 | Neutral (neutral (little effect) 4.184 kJ/mol < ΔΔG > −4.184 kJ/mol) | 
3 | 1DQJ DC101A |  |  | sk_ddG_kJ ([1]; complex by PDBID): 6.07 kJ
4 | 1VFB IC124A |  |  | sk_class (class of SKEMPI experimental ΔΔG) [1]: Positive (positive (a hot residue) ΔΔG ≥ 4.184 kJ/mol)
5 | 1GC1 QC33A | 0.46 | Neutral (neutral (little effect) 4.184 kJ/mol < ΔΔG > −4.184 kJ/mol) | 
6 | 1DQJ RC21A |  |  | sk_ddG_kJ ([1]; complex by PDBID): 4.90 kJ
7 | 1DQJ KC97A |  |  | sk_ddG_kJ ([1]; complex by PDBID): 14.73 kJ
8 | 1DQJ TC89A |  |  | sk_ddG_kJ (SKEMPI experimental ΔΔG) [1, 3]: 3.51 kJ
9 | 1GC1 SC60A | -0.38 | Neutral (neutral (little effect) 4.184 kJ/mol < ΔΔG > −4.184 kJ/mol) | 
10 | 1GC1 QC64A | 1.84 | Neutral (neutral (little effect) 4.184 kJ/mol < ΔΔG > −4.184 kJ/mol) | 
11 | 1A22 PA61A |  |  | sk_class (class of SKEMPI experimental ΔΔG) [1]: Positive (positive (a hot residue) ΔΔG ≥ 4.184 kJ/mol); sk_ddG_kJ (SKEMPI experimental ΔΔG, mutation to alanine) ([1]; complex given by PDBID): 5.02 kJ
12 | 1DQJ KC96A |  |  | sk_ddG_kJ ([1]; complex by PDBID): 25.77 kJ
13 | 1DQJ SC100A |  |  | sk_ddG_kJ (SKEMPI experimental ΔΔG) [1, 3]: 3.26 kJ
14 | 1GC1 TC17A | -0.54 | Neutral (neutral (little effect) 4.184 kJ/mol < ΔΔG > −4.184 kJ/mol) | 
15 | 1GC1 NC73A | -0.46 | Neutral (neutral (little effect) 4.184 kJ/mol < ΔΔG > −4.184 kJ/mol) | 
16 | 1VFB SC24A | 3.56 | Neutral (neutral (little effect) 4.184 kJ/mol < ΔΔG > −4.184 kJ/mol) | 
17 | 1A22 PA48A |  |  | sk_class (class of SKEMPI experimental ΔΔG) [1]: Neutral (neutral (little effect) 4.184 kJ/mol < ΔΔG > −4.184 kJ/mol); sk_ddG_kJ (SKEMPI experimental ΔΔG, mutation to alanine) ([1]; complex given by PDBID): 1.67 kJ
18 | 1GC1 SC23A | 1.21 | Neutral (neutral (little effect) 4.184 kJ/mol < ΔΔG > −4.184 kJ/mol) | 
19 | 1GC1 NC32A | 0.75 | Neutral (neutral (little effect) 4.184 kJ/mol < ΔΔG > −4.184 kJ/mol) | 
20 | 1DQJ WC63A |  |  | sk_ddG_kJ (SKEMPI experimental ΔΔG) [1, 4]: 5.65 kJ
21 | 1GC1 QC40A | -1.72 | Neutral (neutral (little effect) 4.184 kJ/mol < ΔΔG > −4.184 kJ/mol) | 
22 | 1A22 PA59A |  |  | sk_class (class of SKEMPI experimental ΔΔG) [1]: Neutral (neutral (little effect) 4.184 kJ/mol < ΔΔG > −4.184 kJ/mol); sk_ddG_kJ (SKEMPI experimental ΔΔG, mutation to alanine) ([1]; complex given by PDBID): 1.59 kJ

Row | Molecule | sk_ddG_kJ ([1]; PPI given by PDBID) [kJ] | sk_class [1] | other results
23 | 1GC1 QC20A | -0.08 | Neutral (neutral (little effect) 4.184 kJ/mol < ΔΔG > −4.184 kJ/mol) | 
24 | 1GC1 NC30A | 0.71 | Neutral (neutral (little effect) 4.184 kJ/mol < ΔΔG > −4.184 kJ/mol) | 
25 | 1VFB LC129A |  |  | sk_class (class of SKEMPI experimental ΔΔG) [1]: Neutral (neutral (little effect) 4.184 kJ/mol < ΔΔG > −4.184 kJ/mol)
26 | 1DQJ WC62A |  |  | sk_ddG_kJ (SKEMPI experimental ΔΔG) [1, 4]: 3.18 kJ
27 | 1GC1 SC31A | 0.46 | Neutral (neutral (little effect) 4.184 kJ/mol < ΔΔG > −4.184 kJ/mol) | 
28 | 1DQJ YC20A |  |  | sk_ddG_kJ (SKEMPI experimental ΔΔG) [1, 4]: 13.77 kJ
29 | 1VFB VC120A |  |  | sk_class (class of SKEMPI experimental ΔΔG) [1]: Neutral (neutral (little effect) 4.184 kJ/mol < ΔΔG > −4.184 kJ/mol)
30 | 1DQJ LC75A |  |  | sk_ddG_kJ (SKEMPI experimental ΔΔG) ([1]; PPI given by PDBID, sheet sortedByGroup, r_group FAMILYVW): 6.07 kJ
31 | 1VFB YC23A |  |  | sk_class (class of SKEMPI experimental ΔΔG) [1]: Neutral (neutral (little effect) 4.184 kJ/mol < ΔΔG > −4.184 kJ/mol)
32 | 1GC1 QC94A | -0.46 | Neutral (neutral (little effect) 4.184 kJ/mol < ΔΔG > −4.184 kJ/mol) | 
33 | B1 |  |  | sk_class (class of SKEMPI experimental ΔΔG) [1]: Positive (positive (a hot residue) ΔΔG ≥ 4.184 kJ/mol); sk_ddG_kJ (SKEMPI experimental ΔΔG, mutation to alanine) ([1]; complex given by PDBID): 8.74 kJ
34 | B2 | 2.64 | Neutral (neutral (little effect) 4.184 kJ/mol < ΔΔG > −4.184 kJ/mol) | 
35 | B3 | 19.71 | Positive (positive (a hot residue) ΔΔG ≥ 4.184 kJ/mol) | 
36 | B4 | 1.92 | Neutral (neutral (little effect) 4.184 kJ/mol < ΔΔG > −4.184 kJ/mol) | 
37 | B5 |  |  | sk_class (class of SKEMPI experimental ΔΔG) [1]: Neutral (neutral (little effect) 4.184 kJ/mol < ΔΔG > −4.184 kJ/mol); sk_ddG_kJ (SKEMPI experimental ΔΔG, mutation to alanine) ([1]; complex given by PDBID): 2.26 kJ
38 | B6 | -0.42 | Neutral (neutral (little effect) 4.184 kJ/mol < ΔΔG > −4.184 kJ/mol) | 
39 | B7 | -0.13 | Neutral (neutral (little effect) 4.184 kJ/mol < ΔΔG > −4.184 kJ/mol) | 
40 | B8 | -0.75 | Neutral (neutral (little effect) 4.184 kJ/mol < ΔΔG > −4.184 kJ/mol) | 
41 | B9 | -0.08 | Neutral (neutral (little effect) 4.184 kJ/mol < ΔΔG > −4.184 kJ/mol) | 
42 | B10 | 6.53 | Positive (positive (a hot residue) ΔΔG ≥ 4.184 kJ/mol) | 
43 | B11 | 4.10 | Neutral (neutral (little effect) 4.184 kJ/mol < ΔΔG > −4.184 kJ/mol) | 
44 | B12 | 11.13 | Positive (positive (a hot residue) ΔΔG ≥ 4.184 kJ/mol) | 
